In ChEMBL document CHEMBL1201862, “PubChem BioAssay data set” (2004):
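The compound was tested at five concentrations on cells cultured in 96-well plates, with a 48-hour exposure period. Here, GI50 denotes the concentration required for 50% inhibition of growth.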 Calls of active or inactive are those of the source. No stated cut-off is given here; in the data, active = GI50 up to about 1.1 µM and inactive = higher.

Legend:
Test in all cases: NCI tumour cell line growth inhibition, 48 h
KM12 = test system: KM12
NCI-H23 = test system: NCI-H23
RXF 393 = test system: RXF 393
DU-145 = test system: DU-145
T47D = test system: T47D
OVCAR-4 = test system: OVCAR-4
U-251 = test system: U-251
SK-MEL-5 = test system: SK-MEL-5
BT-549 = test system: BT-549
HOP-92 = test system: HOP-92
A549 = test system: A549
TK-10 = test system: TK-10
MDA-MB-231 = test system: MDA-MB-231
SF-539 = test system: SF-539
SK-OV-3 = test system: SK-OV-3
HL-60 = test system: HL-60
COLO 205 = test system: COLO 205
ACHN = test system: ACHN
NCI-H522 = test system: NCI-H522
HCT-15 = test system: HCT-15

| SMILES | GI50 (KM12) | GI50 (NCI-H23) | GI50 (RXF 393) | GI50 (DU-145) | GI50 (T47D) | GI50 (OVCAR-4) | GI50 (U-251) | GI50 (SK-MEL-5) | GI50 (BT-549) | GI50 (HOP-92) | GI50 (A549) | GI50 (TK-10) | GI50 (MDA-MB-231) | GI50 (SF-539) | GI50 (SK-OV-3) | GI50 (HL-60) | GI50 (COLO 205) | GI50 (ACHN) | GI50 (NCI-H522) | GI50 (HCT-15) [µM] |
| --- | --- | --- | --- | --- | --- | --- | --- | --- | --- | --- | --- | --- | --- | --- | --- | --- | --- | --- | --- | --- |
| CCc1ccccc1NNc1cc(=O)[nH]c(=O)[nH]1 | 17.3 µM (inactive) | 34.8 µM (inactive) | 22.2 µM (inactive) | 46.2 µM (inactive) | 17.9 µM (inactive) | 20.3 µM (inactive) | 17.4 µM (inactive) | 17.3 µM (inactive) | 19.4 µM (inactive) | 16.6 µM (inactive) | 24.5 µM (inactive) | > 10 µM (inactive) | 17.5 µM (inactive) | 22.6 µM (inactive) | 22.6 µM (inactive) | 26.7 µM (inactive) | 18 µM (inactive) | 16.9 µM (inactive) |  |  |
| S=C1CC(c2ccccc2)Sc2ccccc2N1 (stereo not drawn) | 95.3 µM (inactive) | 81.8 µM (inactive) | 28.4 µM (inactive) | 87.1 µM (inactive) | > 100 µM (inactive) | 49.2 µM (inactive) | 44.2 µM (inactive) | 66.8 µM (inactive) | 53 µM (inactive) |  | > 10 µM (inactive) | 49.3 µM (inactive) | 45.2 µM (inactive) |  | 41.6 µM (inactive) | > 100 µM (inactive) | > 100 µM (inactive) | 69 µM (inactive) | 31.3 µM (inactive) | 93.3 |
| O=c1nc(Oc2c(F)c(F)c(F)c(F)c2F)ccn1C1OC(CO)C(O)C1O (stereo not drawn) | > 100 µM (inactive) | > 100 µM (inactive) | > 100 µM (inactive) | > 100 µM (inactive) | > 100 µM (inactive) | > 100 µM (inactive) | > 100 µM (inactive) | > 100 µM (inactive) | > 100 µM (inactive) | > 100 µM (inactive) | > 100 µM (inactive) | > 100 µM (inactive) | > 100 µM (inactive) | > 100 µM (inactive) | > 100 µM (inactive) |  | > 100 µM (inactive) | > 100 µM (inactive) | 54.5 µM (inactive) | > 100 |
| Cc1[nH]c2ncn3nc(C(Cl)(Cl)Cl)nc3c2c1Cc1ccccc1 | > 100 µM (inactive) | > 100 µM (inactive) | > 100 µM (inactive) | > 100 µM (inactive) | > 100 µM (inactive) | > 100 µM (inactive) | > 100 µM (inactive) | > 100 µM (inactive) | > 100 µM (inactive) |  | > 100 µM (inactive) | > 100 µM (inactive) | > 100 µM (inactive) | > 100 µM (inactive) | > 100 µM (inactive) | > 100 µM (inactive) | > 100 µM (inactive) | > 100 µM (inactive) | > 100 µM (inactive) | > 100 |
| COc1ccc2oc(=N)c(C(N)=O)cc2c1 | 31.5 µM (inactive) | 68.2 µM (inactive) | > 100 µM (inactive) | 71.9 µM (inactive) | 32 µM (inactive) | 48.1 µM (inactive) | > 100 µM (inactive) | 60.4 µM (inactive) | 57.7 µM (inactive) | > 100 µM (inactive) | > 100 µM (inactive) |  | 66.8 µM (inactive) | 66.5 µM (inactive) | > 100 µM (inactive) | 22.9 µM (inactive) | 49 µM (inactive) | 30.3 µM (inactive) |  | 53.1 |
| Cc1ccc(-c2nc(C)c(C(=O)Nc3ccc(Cl)cc3)s2)cc1 | > 100 µM (inactive) | 24.2 µM (inactive) |  | > 100 µM (inactive) | > 100 µM (inactive) | 18.3 µM (inactive) | 22.1 µM (inactive) | 20.1 µM (inactive) | 13.9 µM (inactive) | 23.5 µM (inactive) | 61.7 µM (inactive) | 20.6 µM (inactive) | 30.3 µM (inactive) | 29.9 µM (inactive) | 19 µM (inactive) | > 100 µM (inactive) | > 100 µM (inactive) | 18.4 µM (inactive) | 30.5 µM (inactive) | > 100 |
| CC(C)(C)OC(=O)N1CCC[C@H]1CSC[C@@H]1CCCN1C(=O)OC(C)(C)C | 20.9 µM (inactive) | 20.7 µM (inactive) | 24.8 µM (inactive) | 44 µM (inactive) | 20.6 µM (inactive) | 28.7 µM (inactive) | 29.7 µM (inactive) | 18.7 µM (inactive) | 23.8 µM (inactive) | 8.43 µM (inactive) | 24.4 µM (inactive) | 56.9 µM (inactive) | 31.5 µM (inactive) |  | 69.5 µM (inactive) |  | 16.8 µM (inactive) | 32.2 µM (inactive) | 24 µM (inactive) | 27.9 |
| CCOC(=O)CCc1cccc2c1oc1c(CCNC(=O)OCC3c4ccccc4-c4ccccc43)cccc12 | > 100 µM (inactive) | 25.6 µM (inactive) |  | > 100 µM (inactive) | 22.8 µM (inactive) | > 100 µM (inactive) | 57.3 µM (inactive) | 29.2 µM (inactive) | 22.5 µM (inactive) | 23.1 µM (inactive) | > 100 µM (inactive) | 40.4 µM (inactive) | 16.2 µM (inactive) |  | 49 µM (inactive) | > 100 µM (inactive) | 34.5 µM (inactive) | 44.3 µM (inactive) | 37.9 µM (inactive) | > 100 |
| O=C(N/N=C/C=C/c1ccccc1)c1ccccc1Nc1ccccc1C(=O)N/N=C/C=C/c1ccccc1 | > 100 µM (inactive) | > 100 µM (inactive) | 20.5 µM (inactive) | > 100 µM (inactive) | > 100 µM (inactive) | 67.9 µM (inactive) | 20.8 µM (inactive) | > 100 µM (inactive) | > 100 µM (inactive) | 67 µM (inactive) | > 100 µM (inactive) | > 100 µM (inactive) | 49.5 µM (inactive) |  | > 100 µM (inactive) | > 100 µM (inactive) | > 100 µM (inactive) | > 100 µM (inactive) |  | > 100 |
| CN(C)CCOc1ccc2[nH]c(C(=O)N3CC(CCl)c4c3cc([N+](=O)[O-])c3ccccc43)cc2c1 (stereo not drawn) | 1.71 µM (inactive) | 2.74 µM (inactive) | 1.55 µM (inactive) | 2.55 µM (inactive) | 1.89 µM (inactive) |  | 2.06 µM (inactive) | 1.7 µM (inactive) | 2.3 µM (inactive) |  |  | 1.94 µM (inactive) | 3.23 µM (inactive) | 1.69 µM (inactive) | 27.3 µM (inactive) | 3.2 µM (inactive) | 3.25 µM (inactive) | 1.95 µM (inactive) |  | 1.86 |
| Clc1ccc(Cl)c(NNc2cc(Cl)ccc2Cl)c1 | > 10 µM (inactive) | 2.82 µM (inactive) | 6.22 µM (inactive) | 5.37 µM (inactive) | 4.28 µM (inactive) | 4.95 µM (inactive) | 7.59 µM (inactive) | 2.76 µM (inactive) | 5.19 µM (inactive) |  | 6.67 µM (inactive) | 4.76 µM (inactive) | > 10 µM (inactive) | > 10 µM (inactive) | 5.79 µM (inactive) | > 10 µM (inactive) | > 10 µM (inactive) | 2.84 µM (inactive) | 3.68 µM (inactive) | 3.61 |
| O1C2C1C1OC1C1OC1C1OC21 (stereo not drawn) | > 100 µM (inactive) | > 100 µM (inactive) |  | > 100 µM (inactive) | > 100 µM (inactive) | > 100 µM (inactive) | > 100 µM (inactive) | > 100 µM (inactive) | > 100 µM (inactive) | > 100 µM (inactive) | > 100 µM (inactive) | > 100 µM (inactive) | > 100 µM (inactive) |  | > 100 µM (inactive) |  | > 100 µM (inactive) | > 100 µM (inactive) | > 100 µM (inactive) | > 100 |
| O=C(CN1CCOCC1)Nc1ccc2c(c1)C1Oc3ccccc3CC1CO2 (stereo not drawn) | > 100 µM (inactive) | > 100 µM (inactive) |  | > 100 µM (inactive) | > 100 µM (inactive) |  | > 100 µM (inactive) | 58.9 µM (inactive) | 38.1 µM (inactive) | > 100 µM (inactive) | > 100 µM (inactive) | > 100 µM (inactive) | > 100 µM (inactive) | > 100 µM (inactive) | > 100 µM (inactive) |  | > 100 µM (inactive) | > 100 µM (inactive) | > 100 µM (inactive) | > 100 |
| C(=C\c1ccccc1)/C=N/c1ccc2c(c1)Cc1ccccc1-2 | > 100 µM (inactive) | 36.1 µM (inactive) | > 100 µM (inactive) | 31.3 µM (inactive) | 76.7 µM (inactive) | 63.8 µM (inactive) | 18.7 µM (inactive) | 98.9 µM (inactive) | 60.4 µM (inactive) | > 100 µM (inactive) | > 100 µM (inactive) | 60.8 µM (inactive) | 65 µM (inactive) |  |  |  |  | > 100 µM (inactive) | 36.8 µM (inactive) | > 100 |
| CO/N=C1\CCC2(O)C3Cc4ccc(O)c5c4C2(CCN3CC2CC2)[C@H]1O5 (stereo partly drawn) | > 100 µM (inactive) | > 100 µM (inactive) |  | > 100 µM (inactive) | > 100 µM (inactive) | > 100 µM (inactive) | > 100 µM (inactive) | > 100 µM (inactive) | > 100 µM (inactive) | > 100 µM (inactive) | > 100 µM (inactive) | > 100 µM (inactive) | > 100 µM (inactive) | > 100 µM (inactive) | > 100 µM (inactive) | > 100 µM (inactive) | > 100 µM (inactive) | > 100 µM (inactive) | > 100 µM (inactive) | > 100 |
| CCOC(=O)CN1CC(C2=C(O)CN(CC(=O)OCC)C2=O)=CC1=O | > 100 µM (inactive) | > 100 µM (inactive) |  | > 100 µM (inactive) | > 100 µM (inactive) | > 100 µM (inactive) | > 100 µM (inactive) | > 100 µM (inactive) | > 100 µM (inactive) | > 100 µM (inactive) | > 100 µM (inactive) | > 100 µM (inactive) | > 100 µM (inactive) | > 100 µM (inactive) | > 100 µM (inactive) | > 100 µM (inactive) | > 100 µM (inactive) | > 100 µM (inactive) | > 100 µM (inactive) | > 100 |
